Reference: patent US20150051387A1, “WATER SOLUBLE PLATINUM COMPLEXES FOR TUMOR TREATMENT AND PROCESS OF PREPARING SAME” (GUDUI BIOPHARMA TECHNOLOGY INC., priority 2011, published 2015)

How the values were obtained:
L1210 tumor cells = assay: Antitumor efficacy in L1210 leukemia-bearing CDF1 mice (Experiment-2); format: in vivo; settings: for Weight Changes: first day to seventh day
Protocol: In the following test, antitumor efficacy studies were performed using 8-9 weeks old female CDF1 mice, the average weight of the animal is 20-25 grams. L1210 tumor cells (about 10^5 cells per mouse) were inoculated intraperitoneally. The water-soluble platinum complexes were used to treat the tumor-bearing animals and the efficacy was compared compared with the clinical platinum antitumor drugs. […] Drugs were administered intraperitoneally on day 1 and day 4 after tumor cell transplantation. The number of experimental animals in each group was 6.
The experimental animals were purchased from Vital River Laboratory Animal Technology Co. Ltd., Tumor cells L1210-leukemia cells were purchased from Shanghai An Yan Commercial Trade Co. Ltd.
The increase in life span (ILS) is calculated as follows:
Wherein, St=the weighted median survival time of treated animals; Su=the weighted median survival time of untreated animals

[1] = Solubility in water at room temperature (Experiment-1)
[2] = 1.25 mg/Kg i.p. day 1 and day 4

cis-[trans-(1R,2R)-diamino cyclohexane] Pt (II) (1-O-D-glucoside-propane-3-chloro-3,3-dicarboxylate) [Example 1]
ILS (L1210 tumor cells; 50 mg/Kg i.p. day 1 and day 4): >425%
Survival Animals on Day 42 (L1210 tumor cells; 50 mg/Kg i.p. day 1 and day 4): 6/6
Weight Changes (L1210 tumor cells; 50 mg/Kg i.p. day 1 and day 4): +1.1 g
ILS (L1210 tumor cells; 100 mg/Kg i.p. day 1 and day 4): >425%
Survival Animals on Day 42 (L1210 tumor cells; 100 mg/Kg i.p. day 1 and day 4): 6/6
Weight Changes (L1210 tumor cells; 100 mg/Kg i.p. day 1 and day 4): +0 g
ILS (L1210 tumor cells; 200 mg/Kg i.p. day 1 and day 4): >425%
Survival Animals on Day 42 (L1210 tumor cells; 200 mg/Kg i.p. day 1 and day 4): 6/6
Weight Changes (L1210 tumor cells; 200 mg/Kg i.p. day 1 and day 4): -0.4 g

N.N.O=C([O-])C1(C(=O)[O-])CCC1.[Pt+2] [Carboplatin, carboplatin]
solubility [1]: 16.6 mg/1 mL H2O
Survival Animals on Day 42 (L1210 tumor cells; 24 mg/Kg i.p. day 1 and day 4): 0/6
Weight Changes (L1210 tumor cells; 24 mg/Kg i.p. day 1 and day 4): +0.6 g
Survival Animals on Day 42 (L1210 tumor cells; 40 mg/Kg i.p. day 1 and day 4): 0/6
Weight Changes (L1210 tumor cells; 40 mg/Kg i.p. day 1 and day 4): -0.4 g
Survival Animals on Day 42 (L1210 tumor cells; 80 mg/Kg i.p. day 1 and day 4): 1/6
Weight Changes (L1210 tumor cells; 80 mg/Kg i.p. day 1 and day 4): -1.2 g

N.N.[Cl][Pt][Cl] [Cisplatin, cisplatin]
Survival Animals on Day 42 (L1210 tumor cells; [2]): 0/6
Weight Changes (L1210 tumor cells; [2]): +1.1 g
Survival Animals on Day 42 (L1210 tumor cells; 2.5 mg/Kg i.p. day 1 and day 4): 1/6
Weight Changes (L1210 tumor cells; 2.5 mg/Kg i.p. day 1 and day 4): -0.6 g
Survival Animals on Day 42 (L1210 tumor cells; 5.0 mg/Kg i.p. day 1 and day 4): 3/6
Weight Changes (L1210 tumor cells; 5.0 mg/Kg i.p. day 1 and day 4): -2.2 g
